According to patent US20160022708A1, “METHODS AND COMPOSITIONS FOR THE TREATMENT OF GLUTAMINE-ADDICTED CANCERS” (ST. JUDE CHILDREN'S RESEARCH HOSPITAL, priority 2013, published 2016):
Where a name gives a salt, the structure may show the parent alone. Read-outs that look alike come from different tables or passages of the source.

Tests used:
[1] = tested on: neuroblastoma and Ewing's sarcoma cell lines; assay: CyQuant viability assay, panel of NB and Ewing's sarcoma cell lines; type: cell-based; conditions: for effectiveness on cancer cell lines: broad ranges of drug concentrations; for efficacy as single agent in vitro: single agents; for single agent effect: more glutamine-addicted cell lines such as IMR32, Kelly, RD-ES and SK-ES-1
Method: To survey the effects of DON on neuroblastomas and Ewing's sarcomas, DON was tested on six neuroblastoma (SK-N-AS, SK-N-BE(2), SK-N-FI, IMR32, Kelly, and SH-SySy) and three Ewing's sarcoma cell lines (SK-N-MC, RD-ES and SK-ES-1) and a control immortalized foreskin fibroblast cell line (BJ). Using the CyQuant viability assay, the respective sensitivities of each cell line to DON were determined after 72 hrs of treatment in a universal media (EMEM, 10% FBS, 0.5 mM glutamine) containing physiological levels of glutamine and glucose. […] More strikingly, all three Ewing's sarcoma cell lines were especially sensitive to DON with an 80% loss in cell viability (FIG. 1B). […]
(§1) 6-diazo-5-oxo-L-norleucine (Sigma Aldrich, St. Louis, Mo.) and epigallocatechin-3-gallate (Sigma Aldrich, St. Louis, Mo.) were solubilized in water, aminooxyacetate (Sigma Aldrich, St. Louis, Mo.), obatoclax mesylate (Selleckchem,), and ABT-263 (Sellekchem) were dissolved in 100% dimethyl sulfoxide (DMSO). In a 96-well tissue culture plate, 5×10^4 cells were plated in 100 ul of media containing EMEM, 10% FBS and 0.5 mM glutamine per well. Four hours after plating drugs were diluted to a 2× concentration in plating media and added to wells. Plates were incubated for 72-hrs and then submitted to CyQuant Cell Direct Proliferation Assay (Life Technologies) according to manufacturer's instructions and read with a Synergy HT Multi-mode microplate reader (Biotek).

[2] = cited from earlier work
[3] = tested on: BJ foreskin fibroblasts; assay: CyQuant viability assay, control cell line; type: cell-based
Method: (§2) To survey the effects of DON on neuroblastomas and Ewing's sarcomas, DON was tested on six neuroblastoma (SK-N-AS, SK-N-BE(2), SK-N-FI, IMR32, Kelly, and SH-SySy) and three Ewing's sarcoma cell lines (SK-N-MC, RD-ES and SK-ES-1) and a control immortalized foreskin fibroblast cell line (BJ). Using the CyQuant viability assay, the respective sensitivities of each cell line to DON were determined after 72 hrs of treatment in a universal media (EMEM, 10% FBS, 0.5 mM glutamine) containing physiological levels of glutamine and glucose. […] More strikingly, all three Ewing's sarcoma cell lines were especially sensitive to DON with an 80% loss in cell viability (FIG. 1B).
as §1

[4] = tested on: SK-N-BE(2) cells; assay: Annexin / propidium iodide staining (FACS); type: cell-based; conditions: 100 μM DON 72 hrs
Method: (§3) To investigate the effects of DON on proliferation and cell death in vivo, additional NB tumor studies using SK-N-AS and SK-N-BE(2) cells were set up. Tumors in each cohort were allowed to grow to ˜1000 mm^3 before they underwent one round of DON treatment at 100 mg/kg of DON twice a week. On day 4, the second dose of DON was given 6-hrs prior and BrdU injected 2 hours prior to harvesting the tumors for histology (FIG. 3A).
(§4) To measure early apoptosis, cells were plated in EMEM media containing 0.5 mM L-glutamine, 10% FBS, and 1% Penicillin/Streptomycin, then treated+/−100 μM DON for 72 hours. Both adherent and floating cells in the media were collected at harvest, and 3×10^5 cells were then stained with Annexin-V-FITC antibody for 15 minutes at room temperature. Cells were then counterstained with propidium iodide (9.1 μM final concentration) and filtered through a 40 μm nylon mesh. Immediately after staining, samples were analyzed by the Flow Cytometry and Cell Sorting Shared Resource facility at St. Jude Children's Research Hospital.

[5] = tested on: SK-N-AS cells; assay: Annexin / propidium iodide staining (FACS); type: cell-based; conditions: 100 μM DON 72 hrs
Method: as §3, §4

[6] = Tolerability in tumor-bearing mice (weight loss, length of treatment); type: in vivo
Method: (§5) DON's effects on NB and EWS tumors in vivo were assessed. Subcutaneous tumors for the neuroblastoma cell lines SK-N-AS and SK-N-BE(2) as well as the Ewing's Sarcoma cell lines SK-N-MC and SK-ES-1 were grown to at least 200 mm^3 and were then randomized into either DON or control treatment groups. Mice were then treated with 100 mg/kg of DON or water control twice a week by intraperitoneal (I.P.) injection, equivalent to a twice a week dose of 300 mg/m^2 in children. Previous work has shown that a dose as high as 520 mg/m^2 was safely achievable in children. […] To attempt to extend the course of treatment, mice either were treated with half the dose at 50 mg/kg twice a week or with a once weekly injection of 100 mg/kg (1×/wk). The effectiveness of the original drug regimen was compared to the two new treatment schedules using mice with subcutaneous tumors from the most DON-resistant (SK-N-FI) and the most DON-sensitive (SK-N-MC) cell line in vitro. This experiment would allow for the determination whether the in vitro data was predictive of differences in response to DON in vivo. Both of the new drug regimens allowed a significant extension in length of treatment from 11 days to greater than 24 days. However, only the 50 mg/kg dose was effective against both tumor types. […] In addition, the SK-N-BE2 and IMR32 neuroblastoma cell lines were tested at the 50 mg/kg dose in mice with subcutaneous tumors. The 50 mg/kg dose was effective against both tumor types (FIG. 7 A-C).
For subcutaneous tumor experiments, cells were injected into the hind flank of either 6-8 week old athymic (nu/nu) mice (Charles River) or into Rag2^−/−; gamma c^−/− mice (kindly provided by Dr. Shannon McKinney-Freeman). No difference in tumor growth kinetics was observed between different strains. SK-N-AS, SK-N-MC, and SK-ES-1 cells were injected at 2×10^6 cells per mouse in 100 μl total volume. […] Tumor size was measured by digital caliper, and tumor volume was calculated using the formula 1/2*(length*width^2). […]

[7] = tested on: SK-N-BE(2) cells; assay: Cell cycle analysis by BrdU labeling (FACS); type: cell-based; conditions: 100 μM DON 72 hrs
Method: as §3
(§6) In vitro cell cultures were pulse-labeled with 10 μM BrdU (BD Biosciences) for 90 minutes at 37° C., and then fixed and stained with Anti-BrdU-FITC antibody and 7-AAD (BD Biosciences, #559619), according to manufacturer's protocol. Stained samples were then analyzed by the Flow Cytometry and Cell Sorting Shared Resource facility at St. Jude Children's Research Hospital.

[8] = tested on: SK-N-AS cells; assay: Cell cycle analysis by BrdU labeling (FACS); type: cell-based; conditions: 100 μM DON 72 hrs
Method: as §3, §6

[9] = tested on: Ewing's sarcoma cell lines (SK-N-MC, RD-ES and SK-ES-1); assay: CyQuant viability assay, Ewing's sarcoma cell lines; type: cell-based; conditions: all three Ewing's sarcoma cell lines; DON 72 hrs
Method: as §2
as §1, with “Four hours after plating drugs were diluted to a 2× concentration in plating media and added to wells.” left out

[10] = tested on: SK-N-FI cells; assay: CyQuant viability assay; type: cell-based; conditions: DON 72 hrs; EMEM, 10% FBS, 0.5 mM glutamine
Method: as §2
as §1, with “Four hours after plating drugs were diluted to a 2× concentration in plating media and added to wells.” left out

[11] = tested on: SK-N-BE(2) tumors; assay: IHC of BrdU and cleaved caspase-3 in tumors; type: in vivo, mice; conditions: ~1000 mm^3 tumors, 100 mg/kg DON day 1 and day 4
Method: as §3
(§7) For in vivo labeling of proliferating cells, mice with subcutaneous SK-N-AS or SK-N-BE(2) tumors (1000 mm^3) were treated with DON and injected with BrdU (BD Biosciences). Mice were given an intraperitoneal (i.p.) injection of 100 mg/kg DON on day 1 and again on day 4. Four hours after the second dose of DON, mice were injected i.p. with 150 μl of 10 mg/ml BrdU. Tumor tissue was harvested 2 hours after addition of BrdU and samples were fixed in 10% formalin. Paraffin-embedded tissue sections were then stained for BrdU incorporation by the St. Jude Veterinary Pathology Core.

[12] = tested on: SK-N-AS tumors; assay: IHC of BrdU and cleaved caspase-3 in tumors; type: in vivo, mice; conditions: ~1000 mm^3 tumors, 100 mg/kg DON day 1 and day 4
Method: as §3, §7

[13] = children, previous work; cited from earlier work
[14] = tested on: IMR32 tumors; assay: Subcutaneous tumor growth; type: in vivo, mice; conditions: 50 mg/kg twice weekly I.P.
Method: as §5
(§8) For subcutaneous tumor experiments, cells were injected into the hind flank of either 6-8 week old athymic (nu/nu) mice (Charles River) or into Rag2^−/−; gamma c^−/− mice (kindly provided by Dr. Shannon McKinney-Freeman). No difference in tumor growth kinetics was observed between different strains. SK-N-AS, SK-N-MC, and SK-ES-1 cells were injected at 2×10^6 cells per mouse in 100 μl total volume. SK-N-BE(2) cells were injected in a 1:1 mix of cells and Matrigel (BD Biosciences) at a final concentration of 2×10^6 cells per mouse. Tumor size was measured by digital caliper, and tumor volume was calculated using the formula 1/2*(length*width^2). When tumors reached an average size of 200 mm^3 mice were randomized into treatment groups. On the day of treatment, mice were weighed then given an intraperitoneal (i.p.) injection of either 100 mg/kg DON, 50 mg/kg or water control. All animal experiments were performed in accordance with the guidelines established by IACUC.

[15] = tested on: SK-ES-1 tumors; assay: Subcutaneous tumor growth; type: in vivo, mice; conditions: 100 mg/kg twice a week I.P.
Method: as §5, §8

[16] = tested on: SK-N-BE(2) tumors; assay: Subcutaneous tumor growth; type: in vivo, mice
Method: as §5, §8

[17] = tested on: SK-N-AS tumors; assay: Subcutaneous tumor growth; type: in vivo, mice; conditions: 100 mg/kg twice a week I.P.
Method: as §5, §8

[18] = tested on: SK-N-FI tumors; assay: Subcutaneous tumor growth; type: in vivo, mice; conditions: 50 mg/kg twice a week I.P.
Method: as §5, §8

[19] = tested on: SK-N-MC tumors; assay: Subcutaneous tumor growth; type: in vivo, mice
Method: as §5, §8

[20] = in vivo; cited from earlier work

CC1(C)CCC(c2ccc(Cl)cc2)=C(CN2CCN(c3ccc(C(=O)NS(=O)(=O)c4ccc(N[C@H](CCN5CCOCC5)CSc5ccccc5)c(S(=O)(=O)C(F)(F)F)c4)cc3)CC2)C1 [ABT-263, navitoclax]
effectiveness on cancer cell lines [1]: effective on all the cancer cell lines tested
efficacy as single agent in vitro [1]: some efficacy
oral bioavailability ([2]; in vivo, po): orally bioavailable
major adverse side effect ([2]; in vivo): thrombocytopenia
safety and tolerability ([2]; in vivo): safe and well-tolerated
tolerability ([2]; phase I and phase II clinical trials in adults): well tolerated
toxicity to BJ cells [3]: non-toxic

NOCC(=O)O [AOA, aminooxyacetate]
single agent effect [1]: effective as single agents

[N-]=[N+]=CC(=O)CC[C@H](N)C(=O)O [DON, 6-diazo-5-oxo-L-norleucine]
cell death [4]: increase in cell death
cell death [5]: increase in cell death
length of treatment ([6]; 50 mg/kg twice a week or 100 mg/kg once weekly): greater than 24 days
weight loss in the mice ([6]; 100 mg/kg twice a week I.P.): caused weight loss
length of treatment ([6]; original regimen 100 mg/kg twice a week): 11 days
sensitivity to DON ([1]; all cell lines except control BJ, 72 hrs): some sensitivity
effectiveness on cancer cell lines [1]: effective on all the cancer cell lines tested
loss in cell numbers ([1]; multiple cell lines, DON 72 hrs, 0.5 mM glutamine): greater than 60%
efficacy as single agent in vitro [1]: some efficacy
entry into the S-phase of the cell cycle [7]: reduced entry into the S-phase
entry into the S-phase of the cell cycle [8]: reduced entry into the S-phase
loss in cell viability [9]: 80%
reduction in cell numbers [10]: 20%
toxicity to BJ cells ([3]; broad ranges of drug concentrations): non-toxic
increase in caspase-3 cleavage [11]: greater than 2 fold
reduction in BrdU incorporation [11]: > 90%
caspase-3 cleavage [12]: no difference
reduction in BrdU incorporation [12]: > 90%
dose safely achievable [13]: ≤ 520 mg/m^2
tumor growth [14]: effective
tumor growth [15]: dramatically blocked growth
tumor growth ([16]; 50 mg/kg twice weekly I.P.): effective
tumor growth ([16]; 100 mg/kg twice a week I.P.): greatly reduced growth
tumor growth [17]: greatly reduced growth
tumor growth [18]: effective
tumor growth ([19]; 50 mg/kg twice a week I.P.): effective
tumor growth ([19]; 100 mg/kg twice a week I.P.): dramatically blocked growth

CC1=C(/C=C/C(C)=C/C=C/C(C)=C/C(=O)Nc2ccc(O)cc2)C(C)(C)CCC1 [fenretinide, N-(4-hydroxyphenyl)retinamide]
effectiveness on cancer cell lines [1]: effective on all the cancer cell lines tested
bioavailability [20]: poor bioavailability
toxicity to BJ cells [3]: non-toxic

COC1=CC(c2cc3ccccc3[nH]2)=N/C1=C\c1[nH]c(C)cc1C [obatoclax mesylate]
efficacy as single agent in vitro [1]: some efficacy

epigallocatechin-3-gallate [EGCG]
single agent effect [1]: effective as single agents
